Data taken from ChEMBL document CHEMBL4373641, “Synthesis and direct comparison of the anticancer activities of phomopsolides D and E and two 7-oxa-/7-aza-analogues” (Medchemcomm, 2019).
pIC50: −log10 of the molar value.

Assays:
Assay type in all cases: functional, cell-based
U-251 = test: Antiproliferative activity against human U251 cells assessed as reduction in cell viability after 48 hrs by SRB assay; conditions: U-251, 48 h
KM12 = test: Antiproliferative activity against human KM12 cells assessed as reduction in cell viability after 48 hrs by SRB assay; conditions: KM12, 48 h
ACHN = test: Antiproliferative activity against human ACHN cells assessed as reduction in cell viability after 48 hrs by SRB assay
SK-OV-3 = test: Antiproliferative activity against human SKOV3 cells assessed as reduction in cell viability after 48 hrs by SRB assay; conditions: SK-OV-3, 48 h
NCI/ADR-RES = test: Antiproliferative activity against human NCI/ADR-RES cells assessed as reduction in cell viability after 48 hrs by SRB assay
MDA-MB-435 = test: Antiproliferative activity against human MDA-MB-435 cells assessed as reduction in cell viability after 48 hrs by SRB assay; conditions: MDA-MB-435, 48 h
OVCAR-4 = test: Antiproliferative activity against human OVCAR4 cells assessed as reduction in cell viability after 48 hrs by SRB assay; conditions: OVCAR-4, 48 h
SN12C = test: Antiproliferative activity against human SN12C cells assessed as reduction in cell viability after 48 hrs by SRB assay
RPMI-8226 = test: Antiproliferative activity against human RPMI8226 cells assessed as reduction in cell viability after 48 hrs by SRB assay; conditions: RPMI-8226, 48 h
SF-539 = test: Antiproliferative activity against human SF539 cells assessed as reduction in cell viability after 48 hrs by SRB assay; conditions: SF-539, 48 h
UACC-62 = test: Antiproliferative activity against human UACC62 cells assessed as reduction in cell viability after 48 hrs by SRB assay; conditions: UACC-62, 48 h, pooled result: one value given for 8 cell lines, strains, targets or settings
PC-3 = test: Antiproliferative activity against human PC3 cells assessed as reduction in cell viability after 48 hrs by SRB assay; conditions: PC-3, 48 h
MOLT-4 = test: Antiproliferative activity against human MOLT4 cells assessed as reduction in cell viability after 48 hrs by SRB assay; conditions: MOLT-4, 48 h
OVCAR-5 = test: Antiproliferative activity against human OVCAR5 cells assessed as reduction in cell viability after 48 hrs by SRB assay; conditions: OVCAR-5, 48 h
T47D = test: Antiproliferative activity against human T47D cells assessed as reduction in cell viability after 48 hrs by SRB assay
SW-620 = test: Antiproliferative activity against human SW620 cells assessed as reduction in cell viability after 48 hrs by SRB assay; conditions: SW-620, 48 h
NCI-H522 = test: Antiproliferative activity against human NCI-H522 cells assessed as reduction in cell viability after 48 hrs by SRB assay; conditions: NCI-H522, 48 h, pooled result: one value given for 8 cell lines, strains, targets or settings
CAKI-1 = test: Antiproliferative activity against human CAKI-1 cells assessed as reduction in cell viability after 48 hrs by SRB assay; conditions: CAKI-1, 48 h
HT-29 = test: Antiproliferative activity against human HT-29 cells assessed as reduction in cell viability after 48 hrs by SRB assay; conditions: HT-29, 48 h
SF-268 = test: Antiproliferative activity against human SF268 cells assessed as reduction in cell viability after 48 hrs by SRB assay; conditions: SF-268, 48 h
K562 = test: Antiproliferative activity against human K562 cells assessed as reduction in cell viability after 48 hrs by SRB assay; conditions: K562, 48 h
MDA-MB-468 = test: Antiproliferative activity against human MDA-MB-468 cells assessed as reduction in cell viability after 48 hrs by SRB assay; conditions: MDA-MB-468, 48 h
UO-31 = test: Antiproliferative activity against human UO31 cells assessed as reduction in cell viability after 48 hrs by SRB assay; conditions: UO-31, 48 h
SR = test: Antiproliferative activity against human SR cells assessed as reduction in cell viability after 48 hrs by SRB assay
Hs-578T = test: Antiproliferative activity against human Hs 578T cells assessed as reduction in cell viability after 48 hrs by SRB assay
IGROV-1 = test: Antiproliferative activity against human IGROV1 cells assessed as reduction in cell viability after 48 hrs by SRB assay; conditions: IGROV-1, 48 h
CCRF-CEM = test: Antiproliferative activity against human CCRF-CEM cells assessed as reduction in cell viability after 48 hrs by SRB assay
MCF7 = test: Antiproliferative activity against human MCF7 cells assessed as reduction in cell viability after 48 hrs by SRB assay; conditions: MCF7, 48 h
TK-10 = test: Antiproliferative activity against human TK10 cells assessed as reduction in cell viability after 48 hrs by SRB assay; conditions: TK-10, 48 h
HCT-15 = test: Antiproliferative activity against human HCT15 cells assessed as reduction in cell viability after 48 hrs by SRB assay; conditions: HCT-15, 48 h
SNB-19 = test: Antiproliferative activity against human SNB19 cells assessed as reduction in cell viability after 48 hrs by SRB assay; conditions: SNB-19, 48 h
HCT-116 = test: Antiproliferative activity against human HCT116 cells assessed as reduction in cell viability after 48 hrs by SRB assay; conditions: HCT-116, 48 h
BT-549 = test: Antiproliferative activity against human BT549 cells assessed as reduction in cell viability after 48 hrs by SRB assay; conditions: BT-549, 48 h
HCC 2998 = test: Antiproliferative activity against human HCC2998 cells assessed as reduction in cell viability after 48 hrs by SRB assay; conditions: HCC 2998, 48 h
HOP-92 = test: Antiproliferative activity against human HOP92 cells assessed as reduction in cell viability after 48 hrs by SRB assay; conditions: HOP-92, 48 h
RXF 393 = test: Antiproliferative activity against human RXF393 cells assessed as reduction in cell viability after 48 hrs by SRB assay; conditions: RXF 393, 48 h
A498 = test: Antiproliferative activity against human A498 cells assessed as reduction in cell viability after 48 hrs by SRB assay; conditions: A498, 48 h
MDA-MB-231 = test: Antiproliferative activity against human MDA-MB-231 cells assessed as reduction in cell viability after 48 hrs by SRB assay; conditions: MDA-MB-231, 48 h
OVCAR-3 = test: Antiproliferative activity against human OVCAR3 cells assessed as reduction in cell viability after 48 hrs by SRB assay; conditions: OVCAR-3, 48 h
SNB-75 = test: Antiproliferative activity against human SNB75 cells assessed as reduction in cell viability after 48 hrs by SRB assay; conditions: SNB-75, 48 h
SF-295 = test: Antiproliferative activity against human SF295 cells assessed as reduction in cell viability after 48 hrs by SRB assay; conditions: SF-295, 48 h
COLO 205 = test: Antiproliferative activity against human COLO205 cells assessed as reduction in cell viability after 48 hrs by SRB assay; conditions: COLO 205, 48 h
HL-60(TB) = test: Antiproliferative activity against human HL-60(TB) cells assessed as reduction in cell viability after 48 hrs by SRB assay; conditions: HL-60, 48 h
DU-145 = test: Antiproliferative activity against human DU145 cells assessed as reduction in cell viability after 48 hrs by SRB assay; conditions: DU-145, 48 h
786-0 = test: Antiproliferative activity against human 786-0 cells assessed as reduction in cell viability after 48 hrs by SRB assay; conditions: 786-0, 48 h
OVCAR-8 = test: Antiproliferative activity against human OVCAR8 cells assessed as reduction in cell viability after 48 hrs by SRB assay; conditions: OVCAR-8, 48 h

With C/C=C(\C)C(=O)O[C@H]1C=CC(=O)O[C@H]1CC[C@H](O)[C@H](C)O [6,7-DIHYDROPHOMOPSOLIDE B] the pIC50 (U-251) was 4.77, the pIC50 (KM12) was 4.31 to 5.70 and the pIC50 (ACHN) was 4.31 to 5.70. It also gave a pIC50 (SK-OV-3) of 4.74, a pIC50 (NCI/ADR-RES) of 4.96 and a pIC50 (MDA-MB-435) of 4.96. It also gave a pIC50 (OVCAR-4) of 4.74, a pIC50 (SN12C) of 4.31 to 5.70 and a pIC50 (RPMI-8226) of 4.31 to 5.70. The pIC50 (SF-539) was 4.77, the pIC50 (UACC-62) was 4.31 to 5.70 and the pIC50 (PC-3) was 4.74. For the same compound, the pIC50 (MOLT-4) was 4.31 to 5.70, the pIC50 (OVCAR-5) was 4.74 and the pIC50 (T47D) was 4.96. It also gave a pIC50 (SW-620) of 4.31 to 5.70, a pIC50 (NCI-H522) of 4.74 and a pIC50 (CAKI-1) of 4.31 to 5.70. The pIC50 (HT-29) was 4.31 to 5.70, the pIC50 (SF-268) was 4.77 and the pIC50 (K562) was 4.31 to 5.70. It also gave a pIC50 (MDA-MB-468) of 4.31 to 5.70, a pIC50 (UO-31) of 4.31 to 5.70 and a pIC50 (SR) of 4.31 to 5.70. For the same compound, the pIC50 (Hs-578T) was 4.96, the pIC50 (IGROV-1) was 4.74 and the pIC50 (CCRF-CEM) was 4.31 to 5.70. The pIC50 (MCF7) was 4.96, the pIC50 (TK-10) was 4.31 to 5.70 and the pIC50 (HCT-15) was 4.31 to 5.70. It also gave a pIC50 (SNB-19) of 4.77, a pIC50 (HCT-116) of 4.31 to 5.70 and a pIC50 (BT-549) of 4.31 to 5.70. It also gave a pIC50 (HCC 2998) of 4.31 to 5.70, a pIC50 (HOP-92) of 4.31 to 5.70 and a pIC50 (RXF 393) of 4.31 to 5.70. The pIC50 (A498) was 4.31 to 5.70, the pIC50 (MDA-MB-231) was 4.96 and the pIC50 (OVCAR-3) was 4.74. For the same compound, the pIC50 (SNB-75) was 4.77, the pIC50 (SF-295) was 4.77 and the pIC50 (COLO 205) was 4.31 to 5.70. It also gave a pIC50 (HL-60(TB)) of 4.31 to 5.70, a pIC50 (DU-145) of 4.74 and a pIC50 (786-0) of 4.31 to 5.70. The pIC50 (OVCAR-8) was 4.74.
